Results as given in patent US6638910B2, “Compositions and methods for controlling plant pests” (priority 1997, dated 2003).
Where two headings read alike, the source gives them in different places. Starred links: 1 amine or outer side, 2 acyl side, 3 side chain; linkers in the order of their positions; H or OH if unused. Positions of bridges follow the written chain, without caps; N, C: chain ends. Non-standard residues stand in square brackets, D forms with d. Residues, ends and D or L forms follow the SMILES beside them. X1 = CC(C)CCCCCCCCC[C@H](CC(=O)[*:1])O[*:2]

Columns and labels:
Rhizoctonia solani = experiment: Greenhouse test, Sheath Blight on Rice; type: in vivo
Plasmopara viticola = experiment: Greenhouse test, grape downy mildew; conditions: Chardonnay grape
Phytophthora infestans = type: in vivo; conditions: Tomato
Uncinula necator = experiment: Greenhouse test, Powdery Mildew on Grape; type: in vivo
Pyricularia oryzae = type: in vivo; conditions: Rice
E. graminis = experiment: Greenhouse test, Powdery Mildew on Wheat; type: in vivo, Erysiphe graminis f. sp. graminis
Botrytis cinerea = experiment: Greenhouse test, Gray Mold on Pepper; type: in vivo
[1] = system: pre-adult beet armyworms (Spodoptera exigua); experiment: 96-well microplate insecticidal assay, score rating; type: in vivo; conditions: Table 16; score 1 (all dead or stunted) to 4 (no dead)
Protocol: (§1) Bacillus samples were grown in a Bacillus culture media. […] One day old streaked cultures were used to inoculate 250 mL baffled shake flasks. Flasks were shaken at 200 rpm at 29° C. for 5 days. To assay insecticidal activity, 35 mL of culture broth were centrifuged at 5,200 rpm for 20 minutes and the supernatant used in microassay described below. Assays were performed in 96-well microplates. […] To assay insecticidal activity, an agar substrate was prepared for the wells of the microplate according to Marrone et al. (1985), J. Econ. Entomol. 78: 290-293. […] Deionized water was used as a negative control. Two replicates of test sample or control were used for each assay. 40 μL of supernatant sample or whole broth grown in medium 1, 2 or 3 were dispensed into each sample well. Plates were then placed in a fume hood to dry for approximately 2-3 hours until the agar solution was dried. […] The microplate was sealed with an airtight substance such as Mylar®, and each well ventilated with a pin press. The plates were incubated at 27° C. for up to 7 days. After incubation, wells were scored by noting neonate mortality or the degree of larval development. […] Scores were averaged among replicates within each sample. […] It contained the same ingredients as medium 3 without proflo cotton seed extract. All other procedures were the same as above. The test was repeated two or three times.

[2] = system: pre-adult corn rootworms (Diabrotica undecimpunctata); experiment: as above; type: in vivo; conditions: Table 16; score 1 (all dead or stunted) to 4 (no dead)
Protocol: as §1

[3] = system: N2 strain of the nematode Caenorhabditis elegans; experiment: 96-well microplate nematicidal assay, score rating; type: in vivo; conditions: Table 16; score 1 (all dead or stunted) to 4 (no dead)
[4] = system: fungi including Penicillium chrysogenum; conditions: Peypoux et al. (1978) Tetrahedron 34:1147-1152; cited from earlier work
Saccharomyces cerevesiae = conditions: Beeson et al. (1979) J. Antibiotics 32(8):828-833; cited from earlier work

CCCCNC(=O)n1c(NC(=O)OC)nc2ccccc21 [Benomyl]
percent disease control, R. solani (Rhizoctonia solani; 40 ppm): 77%
percent disease control, R. solani (Rhizoctonia solani; 100 ppm): 100%

COCC(=O)N(c1c(C)cccc1C)C(C)C(=O)OC (stereo not shown) [Metalaxyl]
percent disease control (Plasmopara viticola; 1 ppm): 80% control
percent disease control (Plasmopara viticola; 10 ppm): 98.3% control
percent disease control (Plasmopara viticola; 30 ppm): 100% control
percent disease control, P. infestans (Phytophthora infestans; 10 ppm): 77%
percent disease control, P. infestans (Phytophthora infestans; 30 ppm): 100%

CCCCC(C#N)(Cn1cncn1)c1ccc(Cl)cc1 (stereo not shown) [Myclobutanil]
percent disease control, U. necator (Uncinula necator; 10 ppm): 100%
percent disease control, U. necator (Uncinula necator; 30 ppm): 100%

O=C(Nc1ccccc1)N(Cc1ccc(Cl)cc1)C1CCCC1 [Pencycuron]
percent disease control, P. oryzae (Pyricularia oryzae; 10 ppm): 100%
percent disease control, P. oryzae (Pyricularia oryzae; 50 ppm): 100%

CCCC1COC(Cn2cncn2)(c2ccc(Cl)cc2Cl)O1 (stereo not shown) [Propiconazole]
percent disease control, E. graminis (E. graminis; 0.2 ppm): 54%
percent disease control, E. graminis (E. graminis; 0.5 ppm): 100%
percent disease control, B. cinerea (Botrytis cinerea; 5 ppm): 57%
percent disease control, B. cinerea (Botrytis cinerea; 10 ppm): 87%

CC(C)CCCCCCCCC[C@@H]1CC(=O)N[C@@H](CCC(=O)O)C(=O)N[C@@H](CC(C)C)C(=O)N[C@H](CC(C)C)C(=O)N[C@@H](C(C)C)C(=O)N[C@@H](CC(=O)O)C(=O)N[C@H](CC(C)C)C(=O)N[C@@H](CC(C)C)C(=O)O1 [Surfactin] (EL[dL]VD[dL]L; linker N-C via X1)
Activity score, Beet armyworm [1]: 4.0
Activity score, Corn rootworm [2]: 2.0
Activity score, C. Elegans [3]: 4.0

Iturin-C
activity against fungi [4]: inactive

bacillomycin L
LC50 (Saccharomyces cerevesiae): 30 µg/mL

iturin-A
LC50 (Saccharomyces cerevesiae): 30 µg/mL

mycosubtilin
LC50 (Saccharomyces cerevesiae): 10 µg/mL
